From PMC8938411, “Novel functional insights into a modified sugar-binding protein from Synechococcus MITS9220” (Scientific Reports, 2022)

Molecular target: T1, MsBP (modified sugar-binding protein, MITS9220_00117), zinc-bound Zn-MsBP
T1 construct: Tat signal peptide removed, N-terminal hexahistidine tag with thrombin cleavage site (pET15-b)
Experiment: ITC of purified MsBP pre-incubated with Zn2+ ([…]x molar excess); supported by DSF (TM […] °C with Zn and FBP)
Design: species or system Synechococcus sp. MIT S9220

Kd: 5.8 µM
Compound: O=P(O)(O)OC[C@H]1OC(O)(COP(=O)(O)O)[C@@H](O)[C@@H]1O (stereo partly shown) [FBP, fructose-1,6-bisphosphate]
